Measured values as given in patent US9649313B2, “Use of ITK inhibitors for the treatment of cancer” (The University of North Carolina at Chapel Hill, priority 2012, dated 2017).

Assays:
Assay in all cases: cell-free kinase assay
Assay type in all cases: biochemical
AKT1 = biological target: T1, AKT1 (Homo sapiens, UniProt P31749); details: single inhibitor concentration
T1 construct: purchased Carna Biosciences
Description: (§1) We investigated the potency and selectivity of BI 10N against 56 kinases using a cell-free assay (Table 8A).
(§2) The selectivity of this inhibitor was investigated by testing the potency of the inhibitor at two concentrations with 53 kinases by Carna Biosciences (MA) (Table 2).

AMPKα1/β1/γ1 = biological target: T2, AMPKα1/β1/γ1 (Homo sapiens, UniProt Q13131); details: single inhibitor concentration
T2 construct: purchased Carna Biosciences
Description: as §1, §2

AurA = biological target: T3, AurA (Homo sapiens, UniProt O14965); details: single inhibitor concentration
T3 construct: purchased Carna Biosciences
Description: as §1, §2

BLK = biological target: T4, BLK (Homo sapiens, UniProt P51451); details: ATP concentration at approximately the Km for ATP
T4 construct: purchased Carna Biosciences
Description: as §1, §2

CDK2/CycA2 = biological target: T5, CDK2/CycA2 (Homo sapiens, UniProt P24941); details: single inhibitor concentration
T5 construct: purchased Carna Biosciences
Description: as §1, §2

CHK1 = biological target: T6, CHK1 (Homo sapiens, UniProt O14757); details: single inhibitor concentration
T6 construct: purchased Carna Biosciences
Description: as §1, §2

CK1ε = biological target: T7, CK1ε (Homo sapiens, UniProt P49674); details: single inhibitor concentration
T7 construct: purchased Carna Biosciences
Description: as §1, §2

CSK = biological target: T8, CSK (Homo sapiens, UniProt P41240); details: single inhibitor concentration
T8 construct: purchased Carna Biosciences
Description: as §1, §2

DAPK1 = biological target: T9, DAPK1 (Homo sapiens, UniProt P53355); details: single inhibitor concentration
T9 construct: purchased Carna Biosciences
Description: as §1, §2

DYRK1B = biological target: T10, DYRK1B (Homo sapiens, UniProt Q9Y463); details: single inhibitor concentration
T10 construct: purchased Carna Biosciences
Description: as §1, §2

GSK3β = biological target: T11, GSK3β (Homo sapiens, UniProt P49841); details: single inhibitor concentration
T11 construct: purchased Carna Biosciences
Description: as §1, §2

HGK = biological target: T12, HGK (Homo sapiens, UniProt O95819)
T12 construct: purchased Carna Biosciences
Description: as §1, §2

IKKβ = biological target: T13, IKKβ (Homo sapiens, UniProt O14920); details: single inhibitor concentration
T13 construct: purchased Carna Biosciences
Description: as §1, §2

ITK = biological target: T14, ITK (Homo sapiens, UniProt Q08881)
T14 construct: purchased Carna Biosciences
T14 sequence (Q08881 1-620): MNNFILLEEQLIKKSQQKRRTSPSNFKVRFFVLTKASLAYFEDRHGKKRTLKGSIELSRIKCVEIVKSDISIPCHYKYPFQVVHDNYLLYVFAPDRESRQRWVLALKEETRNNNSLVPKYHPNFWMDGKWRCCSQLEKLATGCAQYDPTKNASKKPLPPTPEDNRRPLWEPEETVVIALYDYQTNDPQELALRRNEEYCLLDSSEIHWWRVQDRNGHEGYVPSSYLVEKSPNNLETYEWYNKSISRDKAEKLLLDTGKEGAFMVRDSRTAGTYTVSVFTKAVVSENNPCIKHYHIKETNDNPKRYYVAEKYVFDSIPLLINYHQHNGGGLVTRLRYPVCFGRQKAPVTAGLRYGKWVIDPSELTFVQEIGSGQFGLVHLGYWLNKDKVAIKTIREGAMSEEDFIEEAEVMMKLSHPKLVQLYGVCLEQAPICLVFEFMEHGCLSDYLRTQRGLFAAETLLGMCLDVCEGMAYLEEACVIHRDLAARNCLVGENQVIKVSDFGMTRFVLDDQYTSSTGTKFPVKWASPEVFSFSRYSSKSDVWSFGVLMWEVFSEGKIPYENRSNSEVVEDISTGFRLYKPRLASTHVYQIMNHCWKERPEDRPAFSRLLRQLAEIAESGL
Description: as §1, §2

JAK3 = biological target: T15, JAK3 (Homo sapiens, UniProt P52333); details: single inhibitor concentration
T15 construct: purchased Carna Biosciences
Description: as §1, §2

JNK2 = biological target: T16, JNK2 (Homo sapiens, UniProt P45984); details: single inhibitor concentration
T16 construct: purchased Carna Biosciences
Description: as §1, §2

KDR = biological target: T17, KDR (Homo sapiens, UniProt P35968); details: single inhibitor concentration
T17 construct: purchased Carna Biosciences
Description: as §1, §2

LYNa = biological target: T18, LYNa (Homo sapiens, UniProt P07948); details: ATP concentration at approximately the Km for ATP
T18 construct: purchased Carna Biosciences
Description: as §1, §2

PIM1 = biological target: T19, PIM1 (Homo sapiens, UniProt P11309); details: single inhibitor concentration
T19 construct: purchased Carna Biosciences
Description: as §1, §2

PKD2 = biological target: T20, PKD2 (Homo sapiens, UniProt Q9BZL6); details: single inhibitor concentration
T20 construct: purchased Carna Biosciences
Description: as §1, §2

ROCK1 = biological target: T21, ROCK1 (Homo sapiens, UniProt Q13464); details: single inhibitor concentration
T21 construct: purchased Carna Biosciences
Description: as §1, §2

SRC = biological target: T22, SRC (Homo sapiens, UniProt P12931)
T22 construct: purchased Carna Biosciences
Description: as §1, §2

TRKB = biological target: T23, TRKB (Homo sapiens, UniProt Q16620)
T23 construct: purchased Carna Biosciences
Description: as §1, §2

TSSK1 = biological target: T24, TSSK1 (Homo sapiens, UniProt Q9BXA7)
T24 construct: purchased Carna Biosciences
Description: as §1, §2

TYRO3 = biological target: T25, TYRO3 (Homo sapiens, UniProt Q06418); details: single inhibitor concentration
T25 construct: purchased Carna Biosciences
Description: as §1, §2

YES = biological target: T26, YES (Homo sapiens, UniProt P07947); details: for IC50: YES
T26 construct: purchased Carna Biosciences
Description: as §1, §2

ZAP70 = biological target: T27, ZAP70 (Homo sapiens, UniProt P43403); details: ATP concentration at approximately the Km for ATP
T27 construct: purchased Carna Biosciences
Description: as §1, §2

p38α = biological target: T28, p38α (Homo sapiens, UniProt Q16539); details: single inhibitor concentration
T28 construct: purchased Carna Biosciences
Description: as §1, §2

p70S6K = biological target: T29, p70S6K (Homo sapiens, UniProt P23443); details: single inhibitor concentration
T29 construct: purchased Carna Biosciences
Description: as §1, §2

T26 sequence (P07947 whole entry): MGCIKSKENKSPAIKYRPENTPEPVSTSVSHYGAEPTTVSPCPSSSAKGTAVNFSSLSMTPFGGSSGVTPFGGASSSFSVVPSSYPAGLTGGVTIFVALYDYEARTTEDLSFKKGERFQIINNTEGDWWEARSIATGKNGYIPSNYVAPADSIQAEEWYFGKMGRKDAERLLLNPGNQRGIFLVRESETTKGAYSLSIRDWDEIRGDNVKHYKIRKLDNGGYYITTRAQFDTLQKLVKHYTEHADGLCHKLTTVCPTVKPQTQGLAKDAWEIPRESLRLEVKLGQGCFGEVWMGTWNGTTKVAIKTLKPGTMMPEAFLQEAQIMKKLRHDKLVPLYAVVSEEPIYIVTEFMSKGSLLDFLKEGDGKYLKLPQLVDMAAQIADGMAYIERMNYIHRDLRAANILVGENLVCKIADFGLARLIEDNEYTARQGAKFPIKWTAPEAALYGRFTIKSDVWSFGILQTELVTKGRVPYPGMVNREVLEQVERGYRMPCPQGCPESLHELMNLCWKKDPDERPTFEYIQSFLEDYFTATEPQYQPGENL
T23 sequence (Q16620 32-822): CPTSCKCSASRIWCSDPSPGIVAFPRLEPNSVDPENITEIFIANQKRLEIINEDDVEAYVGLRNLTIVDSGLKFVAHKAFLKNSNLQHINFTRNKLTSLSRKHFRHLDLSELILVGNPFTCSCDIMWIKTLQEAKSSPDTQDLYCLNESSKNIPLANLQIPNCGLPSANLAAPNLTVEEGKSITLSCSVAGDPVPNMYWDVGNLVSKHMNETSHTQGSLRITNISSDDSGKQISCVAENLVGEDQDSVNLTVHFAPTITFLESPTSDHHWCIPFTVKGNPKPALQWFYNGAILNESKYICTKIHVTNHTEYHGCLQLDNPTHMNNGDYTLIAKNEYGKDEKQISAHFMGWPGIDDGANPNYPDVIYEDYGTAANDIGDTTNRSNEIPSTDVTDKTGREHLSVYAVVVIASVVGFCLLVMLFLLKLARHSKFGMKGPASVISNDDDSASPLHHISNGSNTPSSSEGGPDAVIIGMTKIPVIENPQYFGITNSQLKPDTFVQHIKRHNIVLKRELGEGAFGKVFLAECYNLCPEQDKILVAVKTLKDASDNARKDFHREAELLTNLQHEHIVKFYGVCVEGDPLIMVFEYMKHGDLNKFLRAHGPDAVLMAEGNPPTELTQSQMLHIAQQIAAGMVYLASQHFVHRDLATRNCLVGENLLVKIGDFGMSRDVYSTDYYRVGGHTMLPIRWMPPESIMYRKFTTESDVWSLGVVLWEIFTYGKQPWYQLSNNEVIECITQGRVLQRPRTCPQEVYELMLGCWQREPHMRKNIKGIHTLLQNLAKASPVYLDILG
T24 sequence (Q9BXA7 whole entry): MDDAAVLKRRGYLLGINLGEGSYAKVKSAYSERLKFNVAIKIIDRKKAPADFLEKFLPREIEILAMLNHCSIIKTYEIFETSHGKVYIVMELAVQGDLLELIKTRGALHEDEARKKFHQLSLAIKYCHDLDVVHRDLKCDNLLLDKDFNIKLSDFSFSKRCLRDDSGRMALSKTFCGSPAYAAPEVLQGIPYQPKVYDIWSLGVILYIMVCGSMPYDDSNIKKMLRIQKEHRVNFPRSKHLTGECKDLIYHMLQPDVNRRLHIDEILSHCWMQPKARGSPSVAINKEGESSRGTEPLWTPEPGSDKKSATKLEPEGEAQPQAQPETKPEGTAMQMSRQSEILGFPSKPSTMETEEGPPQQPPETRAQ
T22 sequence (P12931 whole entry): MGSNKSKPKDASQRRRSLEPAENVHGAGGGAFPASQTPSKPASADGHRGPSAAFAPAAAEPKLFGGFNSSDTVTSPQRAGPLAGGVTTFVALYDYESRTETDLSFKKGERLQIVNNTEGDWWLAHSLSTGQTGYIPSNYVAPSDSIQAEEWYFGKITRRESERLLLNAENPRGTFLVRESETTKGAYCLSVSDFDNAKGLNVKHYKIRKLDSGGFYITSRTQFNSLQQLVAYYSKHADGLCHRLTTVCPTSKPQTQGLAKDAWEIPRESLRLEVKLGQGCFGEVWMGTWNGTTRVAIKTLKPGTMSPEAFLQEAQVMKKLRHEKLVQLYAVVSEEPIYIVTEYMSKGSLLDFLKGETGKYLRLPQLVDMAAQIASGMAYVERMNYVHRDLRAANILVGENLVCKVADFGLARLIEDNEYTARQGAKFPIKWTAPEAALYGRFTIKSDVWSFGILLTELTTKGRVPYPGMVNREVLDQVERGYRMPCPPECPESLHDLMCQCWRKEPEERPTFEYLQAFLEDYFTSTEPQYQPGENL
T12 sequence (O95819 whole entry): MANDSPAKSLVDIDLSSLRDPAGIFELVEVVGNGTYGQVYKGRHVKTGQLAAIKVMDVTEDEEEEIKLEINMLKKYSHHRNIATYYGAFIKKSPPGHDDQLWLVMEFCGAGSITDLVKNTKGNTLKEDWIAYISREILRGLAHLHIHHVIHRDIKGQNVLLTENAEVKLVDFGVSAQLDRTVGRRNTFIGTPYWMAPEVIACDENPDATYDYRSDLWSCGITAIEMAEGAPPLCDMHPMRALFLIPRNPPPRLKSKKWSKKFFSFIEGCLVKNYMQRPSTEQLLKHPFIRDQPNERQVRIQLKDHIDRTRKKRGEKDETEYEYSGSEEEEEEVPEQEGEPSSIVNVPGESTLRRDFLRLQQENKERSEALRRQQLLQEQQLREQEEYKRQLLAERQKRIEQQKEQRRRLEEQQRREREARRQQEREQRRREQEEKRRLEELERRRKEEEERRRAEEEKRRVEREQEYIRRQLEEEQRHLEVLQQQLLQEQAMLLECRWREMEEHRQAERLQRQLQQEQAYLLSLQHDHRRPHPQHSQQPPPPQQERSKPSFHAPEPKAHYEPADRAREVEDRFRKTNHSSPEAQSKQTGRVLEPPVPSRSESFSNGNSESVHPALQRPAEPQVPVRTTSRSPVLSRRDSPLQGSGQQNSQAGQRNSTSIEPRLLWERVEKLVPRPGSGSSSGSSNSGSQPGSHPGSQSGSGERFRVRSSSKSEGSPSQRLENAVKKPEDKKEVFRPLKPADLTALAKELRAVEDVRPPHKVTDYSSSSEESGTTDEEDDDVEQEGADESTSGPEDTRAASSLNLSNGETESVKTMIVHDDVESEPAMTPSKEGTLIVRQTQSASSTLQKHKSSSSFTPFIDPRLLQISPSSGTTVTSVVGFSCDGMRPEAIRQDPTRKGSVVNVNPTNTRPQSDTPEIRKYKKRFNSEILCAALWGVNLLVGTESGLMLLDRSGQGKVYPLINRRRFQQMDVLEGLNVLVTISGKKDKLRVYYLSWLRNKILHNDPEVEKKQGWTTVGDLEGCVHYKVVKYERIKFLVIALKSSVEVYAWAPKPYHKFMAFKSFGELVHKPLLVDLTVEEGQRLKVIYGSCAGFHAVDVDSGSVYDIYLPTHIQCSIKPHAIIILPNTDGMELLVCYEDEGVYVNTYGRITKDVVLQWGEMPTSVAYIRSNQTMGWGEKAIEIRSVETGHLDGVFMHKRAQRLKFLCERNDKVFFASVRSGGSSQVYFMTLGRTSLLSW
T21 sequence (Q13464 whole entry): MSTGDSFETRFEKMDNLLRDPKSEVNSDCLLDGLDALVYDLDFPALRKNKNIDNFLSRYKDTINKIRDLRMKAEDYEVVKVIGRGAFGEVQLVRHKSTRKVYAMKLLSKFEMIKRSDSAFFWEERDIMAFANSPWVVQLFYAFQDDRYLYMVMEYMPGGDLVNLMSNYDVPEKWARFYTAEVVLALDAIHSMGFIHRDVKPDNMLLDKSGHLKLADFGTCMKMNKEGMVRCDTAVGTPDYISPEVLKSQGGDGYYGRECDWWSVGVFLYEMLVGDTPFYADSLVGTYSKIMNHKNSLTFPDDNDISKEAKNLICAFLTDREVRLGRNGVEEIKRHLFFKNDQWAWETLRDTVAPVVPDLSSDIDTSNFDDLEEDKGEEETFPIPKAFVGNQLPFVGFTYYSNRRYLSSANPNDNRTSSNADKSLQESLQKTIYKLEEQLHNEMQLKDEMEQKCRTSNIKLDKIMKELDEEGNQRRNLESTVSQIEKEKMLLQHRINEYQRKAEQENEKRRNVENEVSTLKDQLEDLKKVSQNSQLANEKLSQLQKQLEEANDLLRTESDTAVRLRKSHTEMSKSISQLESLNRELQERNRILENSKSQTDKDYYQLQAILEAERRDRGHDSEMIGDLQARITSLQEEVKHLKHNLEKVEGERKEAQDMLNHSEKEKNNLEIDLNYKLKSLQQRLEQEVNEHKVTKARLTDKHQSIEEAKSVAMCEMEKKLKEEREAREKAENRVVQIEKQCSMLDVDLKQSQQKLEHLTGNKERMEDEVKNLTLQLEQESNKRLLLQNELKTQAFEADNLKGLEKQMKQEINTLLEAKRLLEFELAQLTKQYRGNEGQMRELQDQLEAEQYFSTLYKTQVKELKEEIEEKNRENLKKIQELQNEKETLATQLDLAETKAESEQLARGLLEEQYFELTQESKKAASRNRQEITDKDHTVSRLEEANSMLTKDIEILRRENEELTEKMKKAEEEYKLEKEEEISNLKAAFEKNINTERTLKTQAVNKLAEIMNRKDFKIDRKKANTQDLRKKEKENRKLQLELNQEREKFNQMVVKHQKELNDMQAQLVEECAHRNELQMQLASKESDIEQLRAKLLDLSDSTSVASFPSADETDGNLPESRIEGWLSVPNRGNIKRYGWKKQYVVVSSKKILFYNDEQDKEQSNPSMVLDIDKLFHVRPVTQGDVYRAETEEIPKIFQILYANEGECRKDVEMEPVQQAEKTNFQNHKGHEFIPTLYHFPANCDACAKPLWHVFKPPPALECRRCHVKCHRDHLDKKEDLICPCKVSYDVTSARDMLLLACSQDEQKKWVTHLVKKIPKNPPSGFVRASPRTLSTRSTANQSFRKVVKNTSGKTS

Compound `CC(C)C(C)CNCc1ccc2c(c1)[nH]/c(=N\C(=O)c1ccc(C3=CN=NC3)s1)n2CC(C)(C)O` (stereo not drawn) [BI 10N] has an inhibition at 0.2 µM (AKT1) of -2.2%, an inhibition at 0.2 µM (AMPKα1/β1/γ1) of 15.3% and an inhibition at 0.2 µM (AurA) of 15.9%. It also gave an IC50 (BLK) of 52.2 nM, an inhibition at 0.2 µM (CDK2/CycA2) of 72.3% and an inhibition at 0.2 µM (CHK1) of 60.3%. It also gave an inhibition at 0.2 µM (CK1ε) of 76.2%, an inhibition at 0.2 µM (CSK) of 32.4% and an inhibition at 0.2 µM (DAPK1) of 5.5%. It also gave an inhibition at 0.2 µM (DYRK1B) of 79.6%, an inhibition at 0.2 µM (GSK3β) of 31.5% and an IC50 (HGK; Table 2, by Carna Biosciences) of 12.1 nM. The inhibition at 0.2 µM (HGK; single inhibitor concentration) was 100%, the inhibition at 0.2 µM (IKKβ) was -2.4% and the mode of inhibition (ITK; ITK) was “time-dependent inhibitor”. The IC50 (ITK; ITK, 1 mM ATP, Km ATP 6.1 μM) was 1.43 nM, the IC50 (ITK; ITK, ATP at approximately the Km for ATP, more potent than can be measured) was less than 0.5 nM and the IC50 (ITK; ITK, Table 2, by Carna Biosciences) was 0.486 nM. The Km (ITK; ITK, calculated from IC50 at 1 mM ATP, read-out: Calculated Apparent Km for BI 10N Binding) was 0.00865 nM, the inhibition at 0.2 µM (ITK; ITK, single inhibitor concentration) was 107% and the Ki (ITK; tight binding studies, read-out: K (affinity for ITK)) was 0.0086 nM. The inhibition at 0.2 µM (JAK3) was 75%, the inhibition at 0.2 µM (JNK2) was -0.1% and the inhibition at 0.2 µM (KDR) was 79.3%. For the same compound, the IC50 (LYNa) was 36.6 nM, the inhibition at 0.2 µM (PIM1) was 10.4% and the inhibition at 0.2 µM (PKD2) was 7%. The inhibition at 0.2 µM (ROCK1) was 33%, the IC50 (SRC; Table 2, by Carna Biosciences) was 3.76 nM and the inhibition at 0.2 µM (SRC; single inhibitor concentration) was 99.9%. The IC50 (TRKB) was 1.28 nM, the “selectivity for ITK over TRKB” value (TRKB) was “about 10 fold” and the IC50 (TSSK1; Table 2, by Carna Biosciences) was 28.6 nM. The inhibition at 0.2 µM (TSSK1; single inhibitor concentration) was 88.9%, the inhibition at 0.2 µM (TYRO3) was 35.6% and the “selectivity for ITK over YES” value (YES) was “about 10 fold”. It also gave an IC50 (YES; 1 mM ATP, Km ATP 13 μM) of 5.9 nM, an IC50 (YES; ATP concentration at approximately the Km for ATP) of 0.993 nM and an IC50 (YES; Table 2, by Carna Biosciences) of 0.993 nM. The IC50 (ZAP70) was 7090 nM, the inhibition at 0.2 µM (p38α) was -4.1% and the inhibition at 0.2 µM (p70S6K) was 7.6%.
